Measurements from the supplement of paper PMC10307832.

Assays:
Experiment in all cases: relative viability (nuclei count vs DMSO), 5 days (fraction); higher = more cells survive
Imatinib + Foretinib = compound: Cc1ccc(NC(=O)c2ccc(CN3CCN(C)CC3)cc2)cc1Nc1nccc(-c2cccnc2)n1 [Imatinib] + COc1cc2c(Oc3ccc(NC(=O)C4(C(=O)Nc5ccc(F)cc5)CC4)cc3F)ccnc2cc1OCCCN1CCOCC1 [Foretinib] (partner 0.25 µM)
Outline: (§1)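 The day after seeding in 1536-well plates, lung cancer cell lines were treated by pin tool with a single drug, or with a fixed anchor-drug dose together with five library-drug doses (not always all listed) in √10 steps. After 5 days, a combined fix-and-stain solution (final 0.05% Triton X-100, 1% formaldehyde, 1 ug/ml Hoechst) was added. Nuclei counted on 4× images gave relative viability as treated counts over vehicle counts, reported as the median of duplicate plates.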

Imatinib + Crizotinib = compound: Cc1ccc(NC(=O)c2ccc(CN3CCN(C)CC3)cc2)cc1Nc1nccc(-c2cccnc2)n1 [Imatinib] + C[C@@H](Oc1cc(-c2cnn(C3CCNCC3)c2)cnc1N)c1c(Cl)ccc(F)c1Cl [Crizotinib] (partner 1 µM)
Outline: as §1

Imatinib + Phenformin = compound: Cc1ccc(NC(=O)c2ccc(CN3CCN(C)CC3)cc2)cc1Nc1nccc(-c2cccnc2)n1 [Imatinib] + N=C(N)NC(=N)NCCc1ccccc1 [Phenformin] (partner 250 µM)
Outline: as §1

Imatinib + Vorinostat = compound: Cc1ccc(NC(=O)c2ccc(CN3CCN(C)CC3)cc2)cc1Nc1nccc(-c2cccnc2)n1 [Imatinib] + O=C(CCCCCCC(=O)Nc1ccccc1)NO [Vorinostat] (partner 1 µM)
Outline: as §1

Row | Cell Line | relative viability (Imatinib + Foretinib; first compound 0.02 µM) | relative viability (Imatinib + Foretinib; first compound 0.2 µM) | relative viability (Imatinib + Foretinib; first compound 0.6325 µM) | relative viability (Imatinib + Foretinib; first compound 2 µM) | relative viability (Imatinib + Crizotinib; first compound 0.02 µM) | relative viability (Imatinib + Crizotinib; first compound 0.06325 µM) | relative viability (Imatinib + Crizotinib; first compound 0.2 µM) | relative viability (Imatinib + Crizotinib; first compound 0.6325 µM) | relative viability (Imatinib + Crizotinib; first compound 2 µM) | relative viability (Imatinib + Phenformin; first compound 0.02 µM) | relative viability (Imatinib + Phenformin; first compound 0.2 µM) | relative viability (Imatinib + Phenformin; first compound 0.6325 µM) | relative viability (Imatinib + Phenformin; first compound 2 µM) | relative viability (Imatinib + Vorinostat; first compound 0.02 µM) | relative viability (Imatinib + Vorinostat; first compound 0.06325 µM) | relative viability (Imatinib + Vorinostat; first compound 0.2 µM) | relative viability (Imatinib + Vorinostat; first compound 0.6325 µM) | relative viability (Imatinib + Vorinostat; first compound 2 µM) | relative viability (Imatinib + Foretinib; first compound 0.06325 µM) | relative viability (Imatinib + Phenformin; first compound 0.06325 µM)
1 | BEN | 0.774 | 0.564 | 0.701 | 0.602 | 1.04 | 0.847 | 1 | 0.762 | 0.93 | 0.257 | 0.258 | 0.287 | 0.243 | 0.526 | 0.654 | 0.634 | 0.547 | 0.556 | – | –
2 | NCI-H650 | 1.07 | 1.03 | 1.17 | 0.977 | 0.708 | 0.913 | 0.916 | 0.656 | 0.812 | 0.505 | 0.516 | 0.494 | 0.425 | 0.388 | 0.597 | 0.448 | 0.466 | 0.466 | 0.78 | 0.435
3 | NCI-H3122 | 0.879 | – | 0.887 | 0.984 | 0.253 | 0.292 | 0.324 | 0.313 | 0.255 | 0.394 | 0.366 | – | 0.357 | 1.13 | 1.01 | 1.08 | – | 1.02 | 1.12 | 0.38
4 | EMC-BAC-2 | 1.05 | 1.09 | 0.973 | 1.02 | 0.825 | 0.761 | 0.872 | 0.685 | 0.707 | 0.572 | 0.555 | 0.467 | 0.46 | 0.514 | 0.497 | 0.492 | 0.522 | 0.514 | 1.12 | 0.632
5 | HOP-62 | 1.27 | 1.23 | 0.994 | 1.12 | 0.87 | – | 0.984 | 1.06 | 1 | 0.77 | 0.858 | 0.613 | 0.66 | 0.884 | – | 0.83 | 0.562 | 0.68 | – | –
6 | NCI-H661 | 1 | 1.1 | 0.94 | 1.02 | – | 0.806 | 1.05 | – | 0.869 | 0.245 | 0.259 | 0.263 | 0.258 | 0.823 | 0.87 | 0.845 | 0.778 | 0.74 | 1.04 | 0.255
7 | NCI-H1993 | 0.817 | 0.783 | 0.705 | 0.756 | – | 0.905 | – | 0.927 | 0.815 | 0.56 | 0.519 | 0.485 | 0.52 | 0.608 | 0.581 | 0.737 | 0.688 | 0.743 | 0.886 | 0.506
8 | NCI-H647 | 1.51 | 1.57 | 1.25 | 1.06 | 1.1 | 1.36 | 1.45 | 1.12 | 1.06 | 0.518 | 0.611 | 0.513 | 0.461 | 0.459 | 0.888 | 0.593 | 0.549 | 0.619 | 1.27 | 0.696
9 | EPLC-272H | 0.938 | 0.819 | 0.558 | 0.59 | 0.973 | – | 1.16 | – | 1.03 | 0.308 | 0.273 | 0.322 | 0.442 | 0.351 | – | – | 0.309 | 0.422 | – | –
10 | NCI-H1915 | 1.17 | 1.25 | 1.05 | 1.08 | 0.905 | – | 1.03 | 0.885 | 0.897 | 0.38 | 0.387 | 0.377 | 0.371 | 0.613 | – | 0.516 | 0.461 | 0.471 | – | –
11 | CAL-12T | 1.09 | 1.1 | 1.16 | 1.16 | 0.715 | 0.696 | 1.17 | 0.624 | 0.776 | 0.558 | 0.674 | 0.618 | 0.555 | 0.854 | 0.69 | 0.828 | 0.78 | 0.711 | – | –
12 | NCI-H727 | 0.969 | 0.891 | 0.712 | 0.834 | – | 0.853 | 0.944 | 0.845 | 0.792 | 0.653 | 0.876 | 0.522 | 0.522 | 1.28 | – | – | 1.14 | 1.34 | 0.898 | –
13 | HARA | 0.836 | 0.976 | 0.886 | 0.971 | 1.15 | 1.09 | 1.22 | 1.05 | 1.08 | 0.57 | 0.439 | 0.39 | 0.387 | 0.615 | – | 0.595 | 0.546 | 0.653 | – | –
14 | LK-2 | 1.18 | 1.65 | 0.83 | 1.32 | 0.213 | – | 0.224 | 0.236 | 0.179 | 0.447 | 0.378 | 0.439 | 0.46 | 0.323 | 0.246 | 0.286 | – | 0.159 | 0.908 | 0.413
15 | NCI-H2009 | 1.29 | 1.27 | 1.25 | 1.23 | 1.09 | 1.23 | 0.975 | 1.02 | 1.04 | 0.518 | 0.485 | 0.445 | 0.383 | 0.805 | 0.646 | 0.554 | 0.794 | 0.758 | – | –
16 | NCI-H2087 | 1.2 | – | 1.05 | 0.976 | 0.894 | 0.983 | 0.943 | 0.941 | 0.718 | 0.478 | 0.478 | 0.548 | 0.535 | 0.806 | – | 0.787 | 0.716 | – | – | –
17 | NCI-H838 | 1.15 | 1.07 | 1.02 | 1.02 | 0.956 | 1.25 | – | 0.736 | 0.931 | 0.555 | 0.64 | 0.619 | 0.596 | 0.77 | 0.786 | 0.74 | 0.708 | 0.76 | 1.17 | 0.668
18 | NCI-H2170 | 1.01 | 0.996 | 1.02 | 1 | 1.5 | 1.49 | 1.52 | 1.3 | 1.22 | 0.448 | 0.406 | 0.361 | 0.301 | 0.972 | 0.845 | 0.834 | 0.775 | 0.792 | 1.03 | 0.414
19 | NCI-H1666 | 0.926 | 0.943 | 1.15 | 0.966 | 1.02 | 1.09 | 0.991 | 1.14 | 0.966 | 0.534 | 0.592 | 0.663 | 0.551 | 1.04 | 0.986 | 1.06 | 1.27 | 0.946 | 0.911 | 0.613
20 | NCI-H1944 | 0.923 | 0.964 | 0.851 | 0.852 | 1.24 | – | – | 0.935 | – | 0.185 | 0.188 | 0.199 | 0.162 | 0.605 | 0.573 | 0.536 | 0.512 | 0.439 | 0.946 | 0.2
21 | LC-2-ad | 0.926 | 0.886 | 0.819 | 0.982 | 0.458 | – | 0.502 | 0.434 | 0.384 | 0.626 | – | 0.603 | 0.557 | 0.73 | – | 0.754 | 0.707 | 0.693 | 0.676 | 0.603
22 | EKVX | – | 0.68 | 0.736 | 0.988 | 0.937 | 0.861 | 1.08 | 0.886 | – | – | 0.22 | 0.226 | 0.242 | 0.665 | – | 0.753 | 0.881 | 0.699 | 0.585 | 0.249
23 | NCI-H322M | 1.09 | 1.01 | 0.883 | 0.935 | 0.966 | 1.1 | – | 0.836 | – | 0.909 | 0.819 | 0.679 | 0.795 | 0.889 | 0.873 | 0.928 | 0.775 | 0.876 | 1.03 | 0.839
24 | SK-MES-1 | 0.957 | 1.03 | 0.786 | 0.963 | 1.08 | 0.999 | 1.16 | 1.05 | 0.971 | 0.72 | 0.725 | 0.619 | 0.577 | – | 1.37 | 1.29 | – | 1.09 | 0.915 | 0.686
25 | H3255 | 0.791 | – | 0.914 | 0.709 | 0.636 | – | 0.816 | 0.889 | 0.793 | 0.326 | 0.378 | 0.335 | 0.376 | 0.873 | – | 0.765 | – | 0.588 | 0.405 | 0.377
26 | NCI-H441 | 0.72 | 1.11 | 1.16 | 0.916 | 0.659 | 0.796 | 0.796 | 0.879 | 0.737 | 0.755 | 1.02 | 0.958 | 0.879 | 0.96 | 1.07 | 0.893 | 0.858 | 0.737 | 1.1 | 0.747
27 | NCI-H2405 | 1.03 | 1.05 | 0.986 | 1.02 | 0.917 | 0.879 | 0.827 | 0.772 | 0.843 | 0.366 | 0.341 | 0.329 | 0.333 | 1.06 | – | 1.18 | 0.942 | 0.961 | – | –
28 | LOU-NH91 | 0.943 | 0.891 | 0.929 | 0.879 | 0.747 | 0.778 | 0.767 | 0.677 | 0.769 | 0.679 | 0.675 | 0.679 | 0.665 | 0.948 | 1.08 | 0.938 | 0.885 | 0.895 | 0.923 | 0.693
29 | NCI-H520 | 0.616 | 0.64 | 0.757 | 0.903 | 0.764 | 0.978 | 0.874 | 0.963 | 0.647 | 0.695 | 0.545 | 0.568 | 0.497 | 0.7 | – | 0.662 | 0.922 | 0.729 | 1.2 | 0.823
30 | NCI-H1437 | 1.37 | 1.33 | 1.22 | 1.24 | 1.02 | 1.15 | 1.1 | 1.07 | 0.878 | 0.267 | 0.361 | 0.308 | 0.283 | 0.934 | 0.81 | 0.883 | 0.998 | 0.786 | 1.26 | 0.326
